Experimental data from ChEMBL document CHEMBL2046379, “CCLab--a multi-objective genetic algorithm based combinatorial library design software and an application for histone deacetylase inhibitor design” (Bioorg Med Chem Lett, 2012).
pIC50: −log10 of the molar value.

Assays:
[1] = target: Histone deacetylase 3 (Homo sapiens, UniProt O15379); test: Inhibition of human recombinant His6-tagged and GST-fuses HDAC3 expressed in insect High5 cells using Ac-Lys-Tyr-Lys(e-acetyl)-AMC as substrate after 24 hrs by fluorescence assay
Chain of Histone deacetylase 3 (O15379 whole entry): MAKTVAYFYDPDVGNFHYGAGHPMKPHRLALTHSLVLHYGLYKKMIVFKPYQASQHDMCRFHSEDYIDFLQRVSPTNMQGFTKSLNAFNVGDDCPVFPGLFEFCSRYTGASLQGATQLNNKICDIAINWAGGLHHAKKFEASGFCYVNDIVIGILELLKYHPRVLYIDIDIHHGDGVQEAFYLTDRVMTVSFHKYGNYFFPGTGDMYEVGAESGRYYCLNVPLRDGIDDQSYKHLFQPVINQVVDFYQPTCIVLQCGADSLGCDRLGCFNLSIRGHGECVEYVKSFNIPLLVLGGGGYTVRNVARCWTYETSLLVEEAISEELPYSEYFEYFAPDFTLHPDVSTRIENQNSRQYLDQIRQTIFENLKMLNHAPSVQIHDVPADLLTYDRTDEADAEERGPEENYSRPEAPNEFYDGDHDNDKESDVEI

[2] = target: Histone deacetylase 1 (Homo sapiens, UniProt Q13547); test: Inhibition of human recombinant His6-tagged and GST-fuses HDAC1 expressed in insect High5 cells using Ac-Lys-Tyr-Lys(e-acetyl)-AMC as substrate after 24 hrs by fluorescence assay
Chain of Histone deacetylase 1 (Q13547 whole entry): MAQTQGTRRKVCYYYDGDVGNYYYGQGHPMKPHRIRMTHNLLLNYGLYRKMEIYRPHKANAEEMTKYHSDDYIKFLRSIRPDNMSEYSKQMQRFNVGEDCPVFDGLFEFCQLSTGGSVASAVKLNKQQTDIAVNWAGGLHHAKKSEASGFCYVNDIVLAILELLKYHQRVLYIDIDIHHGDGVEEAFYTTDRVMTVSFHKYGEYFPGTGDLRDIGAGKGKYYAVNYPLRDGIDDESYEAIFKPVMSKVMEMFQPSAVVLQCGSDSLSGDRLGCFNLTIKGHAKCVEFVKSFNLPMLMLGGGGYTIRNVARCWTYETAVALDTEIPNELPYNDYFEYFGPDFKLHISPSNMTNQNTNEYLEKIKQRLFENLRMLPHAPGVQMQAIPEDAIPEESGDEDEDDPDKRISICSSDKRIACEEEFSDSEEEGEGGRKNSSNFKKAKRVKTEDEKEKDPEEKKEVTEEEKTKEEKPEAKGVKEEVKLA

[3] = target: T1, Protein deacetylase HDAC6 (Homo sapiens, UniProt Q9UBN7); test: Inhibition of human recombinant His6-tagged and GST-fuses HDAC6 expressed in insect High5 cells using Boc-Lys(eacetyl)- AMC as substrate after 3 hrs by fluorescence assay
T1 sequence (Q9UBN7 whole entry): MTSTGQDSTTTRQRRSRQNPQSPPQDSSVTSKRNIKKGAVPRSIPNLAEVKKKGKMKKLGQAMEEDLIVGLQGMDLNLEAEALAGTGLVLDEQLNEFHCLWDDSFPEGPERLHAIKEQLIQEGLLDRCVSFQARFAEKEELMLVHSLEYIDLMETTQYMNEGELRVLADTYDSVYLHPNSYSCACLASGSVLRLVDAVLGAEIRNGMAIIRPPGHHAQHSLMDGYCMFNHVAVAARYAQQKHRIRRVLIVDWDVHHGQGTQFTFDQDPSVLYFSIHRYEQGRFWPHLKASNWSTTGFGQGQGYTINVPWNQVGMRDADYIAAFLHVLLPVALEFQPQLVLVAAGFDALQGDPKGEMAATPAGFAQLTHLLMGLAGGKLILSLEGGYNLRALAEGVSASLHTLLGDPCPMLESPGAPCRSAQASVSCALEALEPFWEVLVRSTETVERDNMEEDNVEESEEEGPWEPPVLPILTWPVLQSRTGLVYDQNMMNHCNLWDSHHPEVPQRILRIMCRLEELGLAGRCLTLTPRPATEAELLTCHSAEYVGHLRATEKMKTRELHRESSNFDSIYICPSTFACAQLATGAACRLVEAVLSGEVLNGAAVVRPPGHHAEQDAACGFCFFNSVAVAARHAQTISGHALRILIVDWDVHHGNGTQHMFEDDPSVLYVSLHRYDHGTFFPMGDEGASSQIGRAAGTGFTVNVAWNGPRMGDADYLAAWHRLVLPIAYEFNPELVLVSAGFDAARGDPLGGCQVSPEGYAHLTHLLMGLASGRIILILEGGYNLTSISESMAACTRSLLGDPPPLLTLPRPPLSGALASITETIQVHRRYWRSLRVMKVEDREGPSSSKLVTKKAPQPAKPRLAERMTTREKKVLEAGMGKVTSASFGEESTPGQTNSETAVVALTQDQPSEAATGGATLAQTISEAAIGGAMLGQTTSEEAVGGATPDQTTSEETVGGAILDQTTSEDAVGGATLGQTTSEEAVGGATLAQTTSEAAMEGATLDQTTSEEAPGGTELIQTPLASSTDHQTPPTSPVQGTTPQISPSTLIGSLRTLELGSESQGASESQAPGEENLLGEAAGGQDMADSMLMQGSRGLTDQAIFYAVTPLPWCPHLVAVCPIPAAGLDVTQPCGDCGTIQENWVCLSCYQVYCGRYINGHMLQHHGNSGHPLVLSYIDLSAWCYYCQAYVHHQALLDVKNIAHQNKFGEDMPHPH

Row | Compound | pIC50 [1] | pIC50 [2] | pIC50 [3]
1 | C=CCCC(=O)Nc1ccc(C(=O)N2CCc3nc(C(=O)NO)sc3C2)cc1 | 5.03 | 5.01 | 6.41
2 | COc1ccc(/C=C/C(=O)NCCCN2CCc3nc(C(=O)NO)sc3C2)cc1 | 5.18 | 4.99 | 5.06
3 | C=CCCC(=O)NCCCCN1CCc2nc(C(=O)NO)sc2C1 |  |  | 4.61
4 | O=C(/C=C/c1ccccc1)NCCCCN1CCc2nc(C(=O)NO)sc2C1 | 4.58 | 4.40 | 4.63
5 | O=C(NCCCCN1CCc2nc(C(=O)NO)sc2C1)c1ccc(-c2ccccc2)s1 | 5.31 | 5.22 | 5.57
6 | CC(c1ccc(NC(=O)/C=C/c2ccccc2)nc1)N1CCc2nc(C(=O)NO)sc2C1 (centres undefined) | 5.32 | 5.17 | 5.97
7 | COc1ccc(/C=C/C(=O)Nc2ccc(C(C)N3CCc4nc(C(=O)NO)sc4C3)cn2)cc1 (centres undefined) | 5.24 | 5.17 | 5.81
8 | CC(c1ccc(NC(=O)c2ccc(-c3ccccc3)s2)nc1)N1CCc2nc(C(=O)NO)sc2C1 (centres undefined) | 5.71 | 5.53 | 5.88
9 | CC(C)N(C(=O)/C=C/c1ccccc1)c1cccc(CN2CCc3nc(C(=O)NO)sc3C2)c1 | 5.66 | 4.94 | 5.91

Continued by rising pIC50 [3], values first:

Row | pIC50 [1] | pIC50 [2] | pIC50 [3] | Compound
10 |  |  | 4.23 | C=CCCC(=O)NCCCN1CCc2nc(C(=O)NO)sc2C1
11 | 4.72 | 4.18 | 4.87 | C=CCCC(=O)Nc1ccc(C(C)N2CCc3nc(C(=O)NO)sc3C2)cn1 (centres undefined)
12 | 4.87 | 4.40 | 4.87 | O=C(/C=C/c1ccccc1)NCCCN1CCc2nc(C(=O)NO)sc2C1
13 | 4.47 | 4.46 | 5.02 | COc1ccc(/C=C/C(=O)NCCCCN2CCc3nc(C(=O)NO)sc3C2)cc1
14 | 5.29 | 5.25 | 5.47 | O=C(NCCCN1CCc2nc(C(=O)NO)sc2C1)c1ccc(-c2ccccc2)s1
15 | 4.79 | 4.65 | 6.35 | COc1ccc(/C=C/C(=O)Nc2ccc(C(=O)N3CCc4nc(C(=O)NO)sc4C3)cc2)cc1
16 | 5.58 | 5.59 | 6.92 | O=C(Nc1ccc(C(=O)N2CCc3nc(C(=O)NO)sc3C2)cc1)c1ccc(-c2ccccc2)s1
